Laboratory results from ChEMBL document CHEMBL1148426, “Essential structural features of acetogenins: role of hydroxy groups adjacent to the bis-THF rings” (Bioorg Med Chem Lett, 2004).

Assays:
[1] = biological target: Mitochondrial complex I; NADH oxidoreductase (Bos taurus) (UniProt P25708+P52505); experiment: Maximum inhibition (2 uM) halve the control NADH oxidase activity in bovine heart submitochondrial particles (SMP); format: protein-complex assay
[2] = biological target: Mitochondrial complex I; NADH oxidoreductase (Bos taurus, UniProt P25708+P52505); experiment: Inhibitory concentration needed to halve the control NADH oxidase activity in bovine heart submitochondrial particles (SMP); format: protein-complex assay
Sequence of Mitochondrial complex I; NADH oxidoreductase (P25708 21-464 limits assumed, other chains not shown): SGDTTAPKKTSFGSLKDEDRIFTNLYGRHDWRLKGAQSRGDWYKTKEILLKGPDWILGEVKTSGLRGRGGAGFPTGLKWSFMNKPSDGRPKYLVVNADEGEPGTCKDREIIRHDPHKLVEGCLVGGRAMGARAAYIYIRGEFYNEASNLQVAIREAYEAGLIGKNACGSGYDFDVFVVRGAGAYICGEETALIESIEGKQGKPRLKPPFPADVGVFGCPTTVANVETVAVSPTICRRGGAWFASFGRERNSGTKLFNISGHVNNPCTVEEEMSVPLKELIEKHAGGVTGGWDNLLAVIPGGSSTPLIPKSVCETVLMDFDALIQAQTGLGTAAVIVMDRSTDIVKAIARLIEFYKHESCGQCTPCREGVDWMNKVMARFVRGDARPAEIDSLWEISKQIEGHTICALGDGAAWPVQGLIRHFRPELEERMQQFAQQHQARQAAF

Row | Compound | inhibition [1] [%] | IC50 [2] [nM]
1 | CCCCCCCCCCC[C@H]1CC[C@H]([C@H]2CC[C@H](CCCCCCCCCCCCCC3=C[C@H](C)OC3=O)O2)O1 | 85 | 85
2 | CCCCCCCCCCC[C@H]1CC[C@H]([C@H]2CC[C@H]([C@H](O)CCCCCCCCCCCCC3=C[C@H](C)OC3=O)O2)O1 |  | 3.1
3 | CCCCCCCCCC[C@@H](O)[C@H]1CC[C@H]([C@H]2CC[C@H](CCCCCCCCCCCCCC3=C[C@H](C)OC3=O)O2)O1 |  | 2.7
4 | CCCCCCCCCC[C@@H](O)[C@H]1CC[C@H]([C@H]2CC[C@H]([C@H](O)CCCCCCCCCCCCC3=C[C@H](C)OC3=O)O2)O1 [ISODESAACETYLUVARICIN] |  | 0.75
